# In DBAASP:
# “And” between values parts separate entries of the source, which are not always exact repeats. Identical values can stand only once.
# What was measured:
# Experiment in all cases: ≥ marks a high value that may be exact or a test limit, other limits are often not marked, values filed in µg/mL are converted to µM
# Escherichia coli O157:H7 = tested on: Escherichia coli O157:H7
# [1] = tested on: Staphylococcus aureus 1056
# [2] = tested on: Pseudomonas aeruginosa MR3007
# [3] = tested on: Staphylococcus aureus 930918-3
# [4] = tested on: Bacillus licheniformis X39
# [5] = tested on: Enterococcus faecalis 981
# [6] = tested on: Escherichia coli ATCC 25922
# [7] = tested on: Klebsiella pneumoniae 08040724
# [8] = tested on: Psychrobacter faecalis X29
# [9] = tested on: Rhodococcus rhodochrous X15
# Serratia rubidaea X01 = tested on: Serratia rubidaea X01
# [10] = tested on: Staphylococcus aureus ATCC 25923
# [11] = tested on: Staphylococcus carnosus KHS
# Escherichia coli D31 = tested on: Escherichia coli D31
# [12] = tested on: Klebsiella pneumoniae K6 ATCC 700603
# [13] = tested on: Salmonella enterica subsp. enterica serovar Typhimurium ATCC 700408
# Bacillus megaterium Bm11 = tested on: Bacillus megaterium Bm11
# Candida tropicalis = tested on: Candida tropicalis
# Mammaliicoccus lentus = tested on: Mammaliicoccus lentus
# Micrococcus luteus = tested on: Micrococcus luteus
# [14] = tested on: Phytophthora nicotianae PG344
# [15] = tested on: Pseudomonas syringae pv. tabaci
# [16] = tested on: Yersinia pseudotuberculosis YPIII
# Enterococcus faecalis = tested on: Enterococcus faecalis
# Escherichia coli W3110 = tested on: Escherichia coli W3110
# [17] = tested on: Pseudomonas aeruginosa PAK
# Staphylococcus aureus = tested on: Staphylococcus aureus
# [18] = tested on: Streptococcus mutans UA159
# [19] = tested on: Streptococcus sanguinis NY101
# [20] = tested on: Streptococcus sobrinus ATCC 33478
compound,measurement,setting,value
CC[C@H](C)[C@@H]1NC(=O)[C@H](CCCN=C(N)N)NC(=O)[C@H](CC(C)C)NC(=O)CNC(=O)[C@@H]2CSSC[C@@H]3NC(=O)[C@H](CC(C)C)NC(=O)CNC(=O)[C@H](CC(C)C)NC(=O)[C@H](Cc4ccccc4)NC(=O)[C@H](CCCN=C(N)N)NC(=O)[C@H](CO)NC(=O)[C@@H]4CCCN4C(=O)[C@H](Cc4ccccc4)NC(=O)[C@H](CC(N)=O)NC(=O)[C@H](CSSC[C@@H](C(=O)N[C@@H](CO)C(=O)N[C@@H](CCCN=C(N)N)C(=O)N[C@H](C(=O)N[C@@H](Cc4c[nH]c5ccccc45)C(=O)N[C@H](C(=O)O)C(C)C)C(C)C)NC(=O)[C@H](CSSC[C@H](NC(=O)[C@H](CCC(N)=O)NC(=O)[C@H](C)NC(=O)[C@H](CCC(=O)O)NC(=O)[C@H](CC(N)=O)NC(=O)[C@@H](NC(=O)[C@@H]4CCCN4C(=O)[C@@H](N)CC(C)C)C(C)C)C(=O)N[C@@H](CCCN=C(N)N)C(=O)N[C@@H](CCC(N)=O)C(=O)N[C@@H](C(C)C)C(=O)NCC(=O)NCC(=O)N[C@@H](Cc4ccc(O)cc4)C(=O)N2)NC(=O)[C@@H]2CCCN2C(=O)[C@H](Cc2cnc[nH]2)NC(=O)[C@H](CC(N)=O)NC(=O)[C@H](CCCN=C(N)N)NC(=O)[C@H]([C@@H](C)O)NC3=O)NC1=O [LPVNEAQCRQVGGYCGLRICNFPSRFLGLCTRNHPCCSRVWV],MIC,Escherichia coli O157:H7,2.53 µM
same,MIC,[1],2.41 µM
CC[C@H](C)[C@H](NC(=O)[C@H](CCCCN)NC(=O)[C@H](CCCCN)NC(=O)[C@H](CC(C)C)NC(=O)[C@H](CCCCN)NC(=O)[C@H](CCC(=O)O)NC(=O)[C@H](CCCCN)NC(=O)[C@@H](NC(=O)[C@H](CCCCN)NC(=O)[C@H](CC(N)=O)NC(=O)[C@H](CCCN=C(N)N)NC(=O)[C@H](Cc1ccccc1)NC(=O)[C@H](CCCCN)NC(=O)[C@H](CCCN=C(N)N)NC(=O)[C@H](CC(C)C)NC(=O)[C@H](CCCN=C(N)N)NC(=O)[C@H](CCCCN)NC(=O)[C@H](CCCN=C(N)N)NC(=O)[C@H](CC(C)C)NC(=O)CN)[C@@H](C)CC)C(=O)NCC(=O)O [GLRKRLRKFRNKIKEKLKKIG],MIC,[2],0.27 µM and 0.34 µM
same,MIC,[3],0.69 µM and 0.84 µM
CC[C@H](C)[C@H](NC(=O)[C@H](CO)NC(=O)[C@H](Cc1ccccc1)NC(=O)[C@H](CC(C)C)NC(=O)[C@@H](N)CO)C(=O)N[C@@H](Cc1ccccc1)C(=O)N[C@@H](CCCCN)C(=O)N[C@H](C(=O)N[C@@H](C)C(=O)N[C@@H](C)C(=O)N[C@@H](CCCCN)C(=O)N[C@@H](Cc1ccccc1)C(=O)N[C@H](C(=O)NCC(=O)N[C@@H](CCCCN)C(=O)N[C@@H](CC(N)=O)C(=O)N[C@@H](CC(C)C)C(=O)N[C@@H](CC(C)C)C(=O)N[C@@H](CCCCN)C(=O)N[C@@H](CCC(N)=O)C(=O)N[C@@H](C)C(=O)NCC(=O)N[C@@H](CCCCN)C(=O)N[C@@H](C)C(=O)NCC(=O)N[C@@H](CC(C)C)C(=O)N[C@@H](CCC(=O)O)C(=O)N[C@H](C(=O)N[C@@H](CC(C)C)C(=O)N[C@@H](C)C(=O)N[C@H]1CSSC[C@@H](C(=O)O)NC(=O)[C@H](CCC(=O)O)NC(=O)[C@H](CC(N)=O)NC(=O)[C@H](CCCCN)NC(=O)[C@H](C)NC(=O)[C@H](CCCCN)NC1=O)[C@@H](C)O)C(C)C)[C@@H](C)O [SLFSIFKTAAKFVGKNLLKQAGKAGLETLACKAKNEC],MIC,[4],9 µM
same,MIC,[5],19 µM
same,MIC,[6],75 µM
same,MIC,[7],≥ 150 µM
same,MIC,[8],4.5 µM
same,MIC,[9],1.2 µM
same,MIC,Serratia rubidaea X01,1.2 µM
same,MIC,[10],9 µM
same,MIC,[11],1.2 µM
CC[C@H](C)[C@H](NC(=O)[C@H](Cc1ccc(O)cc1)NC(=O)[C@@H](NC(=O)[C@@H]1CCCN1C(=O)[C@H](CCCN=C(N)N)NC(=O)[C@H](CC(N)=O)NC(=O)[C@H](CC(N)=O)NC(=O)CN)C(C)C)C(=O)N1CCC[C@H]1C(=O)N[C@@H](CCC(N)=O)C(=O)N1CCC[C@H]1C(=O)N[C@@H](CCCN=C(N)N)C(=O)N1CCC[C@H]1C(=O)N1CCC[C@H]1C(=O)N[C@@H](Cc1cnc[nH]1)C(=O)N1CCC[C@H]1C(=O)N[C@@H](CC(C)C)C(N)=O [GNNRPVYIPQPRPPHPL],MIC,Escherichia coli D31,≥ 65.6 µM
same,MIC,[12],≥ 32.8 µM
same,MIC,[13],≥ 32.8 µM
C[C@H](NC(=O)[C@@H](N)CO)C(=O)N1CCC[C@H]1C(=O)N[C@@H](CCCN=C(N)N)C(=O)NCC(=O)N[C@H]1CSSC[C@@H](C(=O)N[C@@H](CCCCN)C(N)=O)NC(=O)[C@@H]2CCCN2C(=O)[C@H](CCCCN)NC(=O)[C@@H]2CCCN2C(=O)[C@@H]2CCCN2C(=O)[C@H](Cc2ccc(O)cc2)NC(=O)[C@H](CO)NC(=O)[C@H](CCCCN)NC(=O)[C@H]([C@@H](C)O)NC(=O)[C@H](Cc2c[nH]c3ccccc23)NC1=O [SAPRGCWTKSYPPKPCK],MIC,Bacillus megaterium Bm11,3 µM
same,MIC,Candida tropicalis,7.4 µM
same,MIC,Mammaliicoccus lentus,7 µM
same,MIC,Micrococcus luteus,5 µM
same,MIC,[14],≥ 32 µM
same,MIC,[15],≥ 80 µM
same,MIC,[16],9 µM
CC[C@H](C)[C@H](NC(=O)[C@H](Cc1ccccc1)NC(=O)CNC(=O)CNC(=O)CNC(=O)[C@H](Cc1ccccc1)NC(=O)[C@H](Cc1cnc[nH]1)NC(=O)[C@H](CC(C)C)NC(=O)[C@H](Cc1cnc[nH]1)NC(=O)[C@H](Cc1ccccc1)NC(=O)[C@H](Cc1cnc[nH]1)NC(=O)[C@@H](N)Cc1ccccc1)C(=O)N[C@@H](CCCCN)C(=O)N[C@@H](Cc1cnc[nH]1)C(=O)N[C@@H](Cc1ccccc1)C(=O)N[C@H](C(=O)N[C@@H](Cc1cnc[nH]1)C(=O)N[C@@H](CCCN=C(N)N)C(=O)N[C@@H](Cc1ccccc1)C(N)=O)[C@@H](C)CC [FHFHLHFGGGFIKHFIHRF],MIC,Enterococcus faecalis,26.2 µM
same,MIC,Escherichia coli W3110,26.2 µM
same,MIC,[17],26.2 µM
same,MIC,Staphylococcus aureus,52.5 µM
same,MIC,[18],13.4 µM
same,MIC,[19],26.2 µM
same,MIC,[20],26.2 µM
